Results taken from US20050080020A1, “Hydroxylated indirubin derivatives” (priority 2002, published 2005).
Like-named read-outs stand apart in the source and are kept apart here.

What was measured:
[1] = test system: cytochrom P450 dependent liver monooxygenases
[2] = test system: human solid tumors implanted into nude mice; settings: cited from earlier work
log P (octanol/water) = type: physicochemical
tumor cells = assay: inhibition of growth of tumor cells; type: cell-based; settings: relative to parent compounds
[3] = solubility in physiological saline (pH 7.4); type: physicochemical
[4] = nude mice, comparable dosage, cf. PCT/EP00/03210

O=C1Nc2ccccc2/C1=C1/Nc2ccccc2C1=O [indirubin]
metabolism (oxidative, liver microsomes) [1]: not metabolized to a detectable extent | toxicity (body weight loss) ([2]; mouse, in vivo): remarkably toxic

Cc1cc2c(cc1O)NC(=O)C2=C1Nc2ccccc2C1=O [6-hydroxy-5-methylindirubin]
log P (octanol/water) (log P (octanol/water)): 1.6 | inhibiting growth of tumor cells, compared with the parent compounds (tumor cells): at least as effective | increase of solubility versus parent compound 5-methylindirubin (factor) [3]: more than 2000 | solubility in physiological saline [3]: up to 240 mg/l

Cc1cc2c(cc1O)NC(=O)C2=C1Nc2c(O)cccc2C1=O [6,7′-dihydroxy-5-methylindirubin]
inhibiting growth of tumor cells, compared with the parent compounds (tumor cells): at least as effective

Cc1ccc2c(c1)/C(=C1/Nc3ccccc3C1=O)C(=O)N2 [5-methylindirubin]
log P (octanol/water) (log P (octanol/water)): 1.1 | metabolism (oxidative, liver microsomes) ([1]; liver microsome preparations from cows, pigs, rats and human liver samples): rapidly metabolized | effectiveness on human solid tumors implanted into nude mice [2, 4]: highly effective | toxicity (body weight loss) [2, 4]: without any perceptible toxicity | solubility in physiological saline [3]: 0.1 mg/l
